“Also recorded” adds a separate entry of the source.

A short description of series [1]: Regeneration of drug from bone powder-bound prodrug. It is filed as in vitro ADME. To be noted: PBS vs serum.
Series [2] concerns S. aureus ATCC 13709. As to the kind of experiment: Prophylactic model of bone infection in rats. It is filed as in vivo, rat. The following applies: for prophylactic effect in rat model of bone infection, in words: Table 4 and FIGS. 6-8, doses as in Table 4. In outline:
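Female CD rats (n=5/group) given intra-tibial 5% sodium morrhuate then S. aureus (ca. 5×10^5 CFU/rat), hole sealed with dental cement. Prodrugs given as single IV bolus in 0.9% saline at various times before infection; parent at molar equivalent dose. Tibiae harvested 24 h postinfection; Log CFU/g bone, detection limit 2 Log CFU/g.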

Series [3] relates to S. aureus ATCC 13709. As to the kind of experiment: Combination with Rifampicin in treatment of osteomyelitis induced in rats. It is filed as in vivo, rat. The following applies: 34 mg/kg 54 IV + 20 mg/kg Rifampicin s.c. on days 14, 15, 16, 17 after surgery; titer on day 43. As to the method: The cells were washed twice with phosphate-buffered saline (PBS) and resuspended in BHIB supplemented with 10% (vol./vol.) fetal bovine serum at a density of approximately 10^10 colony forming units (CFU)/ml (based upon turbidimetry). The suspension was aliquoted and a portion was used to check the CFU count. The culture was stored frozen (−80° C.) and was used without subculture. For use as an inoculum the culture was thawed, diluted in PBS and kept in an ice bath until it was used.
Animals were infected as described by O'Reilly et al. (Antimicrobial Agents and Chemotherapy (1992), 36(12): 2693-97) to generate the bone infection. Female CD rats (age, 57 to 70 days; n=5/group; Charles River, St-Constant, Canada) were anaesthetized by isofluorane before and during the surgery. Following complete induction of anesthesia, the rat was placed ventral side up and hair was shaved from the surgical site. The skin over the leg was cleaned and disinfected (proviodine-ethanol 70%). A longitudinal incision below the knee joint was made in the sagital plane. The incision was made over the bone below the “knee joint” (tibia head or condyle) but not completely extending to the ankle. A high speed drill fitted with a 2 mm bulb bit was used to drill a hole into the medullar cavity of the tibia. […]

`COc1c(N2C[C@@H]3CCCN[C@@H]3C2)c(F)cc2c(=O)c(C(=O)OCC(=O)NC(P(=O)(O)O)P(=O)(O)O)cn(C3CC3)c12` [Compound 52, (1,1-Bisphosphonomethylcarbamoyl)methyl 1-cyclopropyl-6-fluoro-1,4-dihydro-7-((4aS,7aS)-octahydropyrrolo[3,4-b]pyridin-6-yl)-8-methoxy-4-oxoquinoline-3-carboxylate]: the “effect of the medium (presence or absence of serum) on regeneration rate” value in series [1] is given as “fairly similar rates”. Further, the “bacterial titer compared with untreated group” value is recorded as “significant (p<0.05) decrease in bacterial titer” in the series with S. aureus ATCC 13709 [2] (15.8 mg/kg IV 5, 10, 15 and 20 days before infection (FIG. 6)); “significant decrease in bacterial titer” in the series on S. aureus ATCC 13709 [2] (32 mg/kg IV 7, 14, 21 and 28 days prior to infection (FIG. 7)). Also, in the series with S. aureus ATCC 13709 [2] (15.8 mg/kg IV, 2 days prior to infection, 24 h postinfection), the “Measured bacterial titer (Log CFU/g of bone) Test compound” value was 2.29 ± 0.30 Log CFU/g of bone. For the same molecule, the “prophylactic effect in rat model of bone infection, in words” value in the series with S. aureus ATCC 13709 [2] is “efficient prophylactic effect”.

On to `COc1c(N2CCNC(C)C2)c(F)cc2c(=O)c(C(=O)OCC(=O)NC(P(=O)(O)O)P(=O)(O)O)cn(C3CC3)c12` (stereo not shown) [Compound 54, (1,1-Bisphosphonomethylcarbamoyl)methyl 7-(3-methylpiperazin-1-yl)-1-cyclopropyl-6-fluoro-1,4-dihydro-8-methoxy-4-oxoquinoline-3-carboxylate], for which the “effect of the medium (presence or absence of serum) on regeneration rate” value in series [1] was “rate deceleration”. For the same molecule, the “bacterial titer compared with untreated group” value in the series with S. aureus ATCC 13709 [2] (17.3 mg/Kg IV 48 h prior to infection (FIG. 8)) is given as “significant (p-value ≦0.0002) decrease in bacterial titer; also recorded: nearly sterile bone”. In the series on S. aureus ATCC 13709 [2] (20 mg/kg IV, 3 days prior to infection), the “Measured bacterial titer (Log CFU/g of bone) Test compound” value is on record as 2.96 ± 0.69 Log CFU/g of bone. The “prophylactic effect in rat model of bone infection, in words” value in the series on S. aureus ATCC 13709 [2] is “efficient prophylactic effect”. For the same molecule, the “bacterial titer in the infected tibiae, combination with Rifampicin” value in the series on S. aureus ATCC 13709 [3] is given as “statistically significant decrease (p=0.007)”.
